Where a SMILES comes first, the peptide text is derived from it.
Tests used:
[1] = Rate of solubility: time to complete dissolution in room temperature distilled water (10 ml, pH 5.7, constant stirring); Solubility Factor derived from it; format: physicochemical; settings: APM alone (control); for Rate of Solubility (time until complete dissolution): in 10 ml room temperature distilled water, pH 5.7, magnetic stirrer, B3: incomplete dissolution after this time
Experimental: The following represents a broad ratio of systems tested in order to evaluate the effect protein hydrolysates have on the rate of solubility of APM.
All systems were prepared by dissolving the ingredients in water and freeze-drying. Evaluations were made in room temperature distilled water (10 ml) having a pH of 5.7 with constant stirring by a magnetic stirrer. The time was clocked from the instant the powder hit the water until complete dissolution.
Samples A1 - A4 consisted of 1 g. each in 10 ml; samples B1 - B4 (controls) consisted of the amount indicated, also in 10 ml., the total amount of APM in the controls being equivalent to the respective test samples (A1 - A4). Where applicable, the ratio expressed is of APM to soy isolate respectively.
A convenient way of expressing the change in the solubility rate of a given amount of sweetener after combining with protein hydrolysate and dried is called the "Solubility Factor."
This is expressed as follows: [formula] the higher the SF value, the more appreciable the improvement in solubility.

[2] = as much as; cited from earlier work

Structure (SMILES)	Rate of Solubility (time until complete dissolution) [1]	further results
COC(=O)[C@H](Cc1ccccc1)NC(=O)[C@@H](N)CC(=O)O [Sample B1, L-aspartyl-L-phenylalanine methyl ester] (H-Asp-Phe-OMe)	7 min	
COC(=O)[C@H](Cc1ccccc1)NC(=O)[C@@H](N)CC(=O)O [Sample B2, L-aspartyl-L-phenylalanine methyl ester] (H-Asp-Phe-OMe)	11 min	
COC(=O)[C@H](Cc1ccccc1)NC(=O)[C@@H](N)CC(=O)O [APM, L-aspartyl-L-phenylalanine methyl ester] (H-Asp-Phe-OMe)		sweetness relative to sucrose [2]: ≤ 200 times as sweet as sucrose
COC(=O)[C@H](Cc1ccccc1)NC(=O)[C@@H](N)CC(=O)O [Sample B3, L-aspartyl-L-phenylalanine methyl ester] (H-Asp-Phe-OMe)	> 50 min	
COC(=O)[C@H](Cc1ccccc1)NC(=O)[C@@H](N)CC(=O)O [Sample B4, L-aspartyl-L-phenylalanine methyl ester] (H-Asp-Phe-OMe)		Rate of Solubility (incomplete dissolution after) ([1]; 200 mgs. in 10 ml room temperature distilled water, pH 5.7): > 1 h

Reference: patent US4031259A, “Process of preparing nutritive sweetening compositions” (General Foods Corporation, priority 1975, dated 1977)
